Measurements from patent US11553718B2, “Mic reduction with lithium ions” (priority 2014, dated 2023).
Values joined by “and” are separate entries in the source; they are usually repeats but may differ in a detail not shown here. Equal values may be shown once. Read-outs that look alike come from different tables or passages of the source.

Tests used:
[1] = tested on: S. aureus strain DSMZ 346; test: MIC determination / bacterial count in CaCO3 slurry with or without lithium ions; type: cell-based; details: for MIC ratio (MICwithout Li/MICLi): S. aureus; for MIC: Staphylococcus aureus, DSMZ346, S. aureus, read-out: MIC active/aequeous; for bacterial count: S. aureus DSMZ 346; for antimicrobial effect of lithium ions provided alone: S. aureus strain
Protocol: (§1) When not otherwise indicated, the quoted bacterial counts (values are in cfu/plate) in the Tables here below are determined after 2 days following plate-out and incubation at 30° C. The counting method was as follows. The aqueous preparations were stirred well with a cotton swap (e.g. Applimed SA, No. 1102245); the excess aqueous preparation was removed by dipping it gently to the side of the aqueous preparation container, leaving approximately 200 mg of aqueous preparation on the swap. […] TSA plates were then incubated for 48 h at 30° C. Colony forming units (cfu) were then counted and reported as cfu/plate. Counts from 100 to 999 cfu per plate are reported as ≥100 cfu/plate. Counts of 1000 cfu and above per plate are reported as ≥1000 cfu/plate. Yeast and moulds were counted as described for bacteria with the following exceptions, a) Sabouraud Dextrose Agar (SDA) containing Chloramphenicol (e.g. heipha Dr. Miller GmbH, No. 1460030020) were used instead of TSA, b) SDA plates were incubated at 25° for 5 days and c) cfu were counted and reported after 48 h and 5 days of incubation. Yeast and moulds counts from 20 to 99 cfu per plate are reported as […]. Yeast and moulds counts of 100 cfu and above per plate are reported as >100 cfu/plate.
(§2) For determining the MIC, the tested microorganism, i.e. the strain of bacteria and/or strain of yeast and/or strain of mould, were freshly grown until the end of the logarithmic growth phase according to the requirements of the individual species to a density of approximately 10^7-10^9 cells/ml.
(§3) For example, fresh bacteria cultures of the bacteria E. coli, e.g. E. coli ATCC 11229, and S. aureus, e.g. S. aureus strains DSMZ 346, were prepared by inoculation of 3 ml liquid growth media (tryptic soy broth, e.g. Fluka Cat. No. 22092) from a stock culture and incubation for 16 to 20 h at 30° C. with agitation at 150 rotations per minutes (rpm) leading to a cell density of approximately 2×10^8 cells/ml. Fresh cultures of resistant bacteria, adapted to the conditions in biocide containing CaCO3 slurries, were prepared by inoculation of 50 g 75 wt.-% solid content CaCO3 slurry from a stock culture and incubated for 14 to 28 days at 30° C. without agitation.
(§4) Lithium ions were added to the aqueous preparation (e.g. CaCO3 slurry) by the addition of a water soluble lithium salt. For example to 50 g CaCO3 slurry with a solid content of 75% (w/w) 1.177 ml of a 74 g/Li2CO3 suspension was added and mixed well leading to a lithium ion concentration of 172 mM or 1205 ppm in the water phase. As another example to 50 g CaCO3 slurry with a solid content of 75 wt.-% (w/w) 0.04 ml of a 292 g/L Li3Citrate (2M) solution was added and mixed well leading to a lithium ion concentration of 19 mM or 135 ppm in the water phase.
(§5) The biocide to be tested was added to the aqueous preparation (e.g. CaCO3 slurry with or without lithium ions) in increasing concentrations starting from 0 ppm (without biocide). The concentrations ranged from concentrations higher than recommended by the supplier, to very low amounts (as low as 1 ppm or lower). Of each biocide concentration a 3 ml sample of aqueous preparation was combined with 20 μl fresh bacterial culture.
(§6) All samples were incubated at 30° C. for 24 h. After incubation colony forming units (cfu) per plate (cfu/plate) were determined as described above under bacterial count.
(§7) The MIC for bacteria is defined as the lowest concentration of biocide in the presence or absence of lithium ion amongst all samples tested, where the bacterial concentration dropped below 100 cfu/plate. The MIC for yeast and mould is defined as the lowest concentration of biocide in the presence or absence of lithium ion amongst all samples tested, where the microbial concentration dropped below 20 cfu/plate.

[2] = tested on: E. coli strain ATCC11229; test: as above; type: cell-based; details: for MIC ratio (MICwithout Li/MICLi): E. coli, Li2CO3
Protocol: as §1, §2, §3, §4, §5, §6, §7

[3] = tested on: bacterial strain rOmyAK; test: microbe, parasite or virus in culture; type: cell-based, Pseudomonas mendocina
Protocol: as §1, §2, §3, §4, §5, §6, §7

O=CCCCC=O [Glutaraldehyde]
MIC ratio (MICwithout Li/MICLi) ([1]; Li^+ 197 mM (1380 ppm), Li2CO3): >10 | MIC ([1]; Li^+ 197 mM (1380 ppm), Li2CO3): 40 µM and 3.54 µg/mL | MIC ([1]; no Li^+): > 350 µM and > 35.4 µg/mL

CCCCCCCCCCCCN=C(N)N.Cl [Guanidinedodecyl monochloride]
MIC ratio (MICwithout Li/MICLi) ([2]; Li^+ 197 mM (1380 ppm)): >2.4

O=S(=O)(C(Cl)(Cl)Cl)C(Cl)(Cl)Cl [Hexachlorodimethyl sulfone]
MIC ratio (MICwithout Li/MICLi) ([1]; Li^+ 329 mM (2305 ppm), Li2CO3): 1.33 | MIC ratio (MICwithout Li/MICLi) ([2]; Li^+ 197 mM (1380 ppm)): 1.67

[Li+] [Li^+]
antimicrobial effect of lithium ions provided alone ([3]; rOmy AK strain, lithium ions via Li2CO3, no biocide): no antimicrobial effect | bacterial count ([3]; rOmy AK, no MIT, 329 mM Li^+ (Li2CO3) alone): ≥1000 cfu/plate | bacterial count ([1]; no CMIT/MIT, 197 mM Li^+ (Li2CO3) alone): ≥1000 cfu/plate | bacterial count ([1]; no Sodium pyrithione, 96 mM Li^+ (lithium citrate) alone): ≥1000 cfu/plate | antimicrobial effect of lithium ions provided alone ([1]; lithium ions via Li2CO3, no biocide): no antimicrobial effect | antimicrobial effect of lithium ions provided alone ([1]; lithium ions via lithium citrate, no biocide): no antimicrobial effect | bacterial count ([2]; E. coli ATCC11229, no 4-chloro-3-methylphenol, 197 mM Li^+ (Li2CO3) alone): ≥100 cfu/plate | antimicrobial effect of lithium ions provided alone ([2]; E. coli strain, lithium ions via Li2CO3, no biocide): no antimicrobial effect

N#CSCSC#N [Methylene bis(thiocyanate)]
MIC ratio (MICwithout Li/MICLi) ([1]; Li^+ 329 mM (2305 ppm), Li2CO3): 4.04

[Na+].[O-][n+]1ccccc1[S-] [Sodium pyrithione]
MIC ratio (MICwithout Li/MICLi) ([2]; Li^+ 197 mM (1380 ppm)): 3

Polyethoxyethoxyethylguanidinium hexachloride
MIC ratio (MICwithout Li/MICLi) ([2]; Li^+ 197 mM (1380 ppm)): >1.33 | MIC ratio (MICwithout Li/MICLi) ([2]; Li^+ 423 mM (2964 ppm)): >8
